Source: the NIST ThermoML archive (doi:10.1021/je101178u)
“And” between values parts separate entries of the source, which are not always exact repeats. Identical values can stand only once.

Settings: Fluid (supercritical or subcritical phases); for viscosity: vibrating wire; for mass density: Buoyancy - hydrostatic balance with magnetic suspension - one sinker

CC [ethane]
Settings	mass density	viscosity
307.15 K, 29063 kPa	–	0.07227 mPa·s
307.15 K, 29978 kPa	436.186 kg/m3 and 436.185 kg/m3	0.07317 mPa·s and 0.07325 mPa·s
307.15 K, 29979 kPa	436.187 kg/m3	0.07323 mPa·s
307.15 K, 29980 kPa	436.189 kg/m3	0.07314 mPa·s and 0.07319 mPa·s
423.15 K, 95.75 kPa	0.82018 kg/m3	0.01277 mPa·s
423.15 K, 95.83 kPa	0.82091 kg/m3	0.01276 mPa·s
423.15 K, 117.47 kPa	1.0068 kg/m3	0.01277 mPa·s
423.15 K, 117.64 kPa	1.0082 kg/m3	0.01277 mPa·s
423.15 K, 117.73 kPa	1.009 kg/m3	0.01277 mPa·s
423.15 K, 226.59 kPa	1.947 kg/m3	0.0128 mPa·s
423.15 K, 226.76 kPa	1.9485 kg/m3	0.0128 mPa·s
423.15 K, 459.37 kPa	3.9693 kg/m3	0.01284 mPa·s
423.15 K, 459.46 kPa	3.9701 kg/m3	0.01284 mPa·s
423.15 K, 691.62 kPa	6.0097 kg/m3	0.0129 mPa·s
423.15 K, 691.95 kPa	6.0126 kg/m3	0.01289 mPa·s
423.15 K, 915.95 kPa	8.0024 kg/m3	0.01294 mPa·s
423.15 K, 916.03 kPa	8.0031 kg/m3	0.01294 mPa·s
423.15 K, 1136.5 kPa	9.9828 kg/m3	0.01298 mPa·s
423.15 K, 1136.7 kPa	9.9843 kg/m3	0.01298 mPa·s
423.15 K, 1357.6 kPa	11.99 kg/m3	0.01303 mPa·s
423.15 K, 1357.9 kPa	11.993 kg/m3	0.01303 mPa·s
423.15 K, 1576.5 kPa	13.999 kg/m3	0.01306 mPa·s and 0.01307 mPa·s
423.15 K, 1794.4 kPa	16.02 kg/m3	0.01312 mPa·s
423.15 K, 1795 kPa	16.025 kg/m3	0.01311 mPa·s
423.15 K, 2007.1 kPa	18.014 kg/m3	0.01317 mPa·s
423.15 K, 2007.2 kPa	18.015 kg/m3	0.01317 mPa·s
423.15 K, 2209.1 kPa	19.928 kg/m3	0.01322 mPa·s
423.15 K, 2209.2 kPa	19.929 kg/m3	0.01322 mPa·s
423.15 K, 3243 kPa	30.033 kg/m3	0.01352 mPa·s
423.15 K, 3244.5 kPa	30.048 kg/m3	0.01351 mPa·s
423.15 K, 4164.4 kPa	39.494 kg/m3	0.01382 mPa·s
423.15 K, 4164.5 kPa	39.495 kg/m3	0.01382 mPa·s
423.15 K, 4551.5 kPa	43.602 kg/m3	0.01395 mPa·s
423.15 K, 4555.3 kPa	43.642 kg/m3	0.01396 mPa·s
423.15 K, 5910.6 kPa	58.665 kg/m3	0.01454 mPa·s
423.15 K, 5914.3 kPa	58.707 kg/m3	0.01455 mPa·s
423.15 K, 6746.2 kPa	68.424 kg/m3	0.01497 mPa·s
423.15 K, 6746.9 kPa	68.432 kg/m3	0.01497 mPa·s
423.15 K, 7528 kPa	77.889 kg/m3	0.01542 mPa·s
423.15 K, 7530.1 kPa	77.915 kg/m3	0.01542 mPa·s
423.15 K, 8298.5 kPa	87.517 kg/m3	0.0159 mPa·s
423.15 K, 8300.8 kPa	87.546 kg/m3	0.0159 mPa·s
423.15 K, 9235.9 kPa	99.586 kg/m3	0.01656 mPa·s
423.15 K, 9238.5 kPa	99.621 kg/m3	0.01656 mPa·s
423.15 K, 10732 kPa	119.465 kg/m3	0.01774 mPa·s
423.15 K, 10733 kPa	119.476 kg/m3	0.01775 mPa·s
423.15 K, 12215 kPa	139.509 kg/m3	0.0191 mPa·s
423.15 K, 12218 kPa	139.549 kg/m3	0.01909 mPa·s
423.15 K, 13727 kPa	159.706 kg/m3	0.02062 mPa·s
423.15 K, 13728 kPa	159.722 kg/m3	0.02062 mPa·s
423.15 K, 15325 kPa	180.142 kg/m3	0.02234 mPa·s
423.15 K, 15327 kPa	180.168 kg/m3	0.02234 mPa·s
423.15 K, 16990 kPa	199.904 kg/m3	0.0242 mPa·s
423.15 K, 16991 kPa	199.911 kg/m3	0.02421 mPa·s
423.15 K, 16992 kPa	199.925 kg/m3	0.0242 mPa·s
423.15 K, 18872 kPa	220.003 kg/m3	0.02632 mPa·s
423.15 K, 18874 kPa	220.02 kg/m3	0.02632 mPa·s
423.15 K, 18878 kPa	220.065 kg/m3	0.02633 mPa·s
423.15 K, 21034 kPa	240.207 kg/m3 and 240.204 kg/m3	0.0287 mPa·s
423.15 K, 23414 kPa	259.265 kg/m3	0.03119 mPa·s
423.15 K, 23415 kPa	259.275 kg/m3	0.0312 mPa·s
423.15 K, 26527 kPa	280.132 kg/m3	0.03425 mPa·s
423.15 K, 26529 kPa	280.144 kg/m3	0.03424 mPa·s
423.15 K, 30162 kPa	300.101 kg/m3	0.03757 mPa·s
423.15 K, 30174 kPa	300.162 kg/m3	0.03757 mPa·s
423.15 K, 30181 kPa	300.195 kg/m3	0.03756 mPa·s
423.15 K, 30183 kPa	300.204 kg/m3	0.03758 mPa·s
